US8232318B2, “Approaches to treat cancer using HB-EGF inhibitors” (The General Hospital Corporation, priority 2009, dated 2012)
“Also recorded” adds a separate entry of the source.

Columns and labels:
[1] = molecular target: T1, HB-EGF (Homo sapiens, UniProt Q99075); test: Surface Plasmon Resonance (Biacore) binding to immobilized HB-EGF; settings: SPR, compound 0.78 uM-50 uM, 25° C.
T1 construct: lyophilized HB-EGF protein (R&D Systems) was dissolved in either water or PBS buffer; purchased R&D Systems
Procedure: A Biacore™ T100 (GE Healthcare, Uppsala, Sweden) was used to perform the Surface Plasmon Resonance (SPR) experiments. Sensor surface preparation and interaction analyses experiments were performed at 25° C. Prior to surface preparation, lyophilized HB-EGF protein (R&D Systems) was dissolved in either water or PBS buffer, at pH 7.4 and protein purity determined by Nu-Page 4-12% Bis-Tris gel in MOPS (3-(N-Morpholino)-propanesulfonic acid) buffer with a silver stain sensor preparation. HB-EGF was immobilized onto series S sensor chip CM4 via a standard N-ethyl-N′-(dimethyl-aminopropyl)carbodiimide/N-hydroxysuccinimide (EDC/NHS) amine coupling procedures. HB-EGF was diluted to 10 μg/mL in 10 mM sodium acetate pH5.5 for these procedures and resultant immobilization levels were 1000-1200 R.U.s. (R.U.: […]). Control surfaces were prepared similarly without protein derivatization and utilized as a reference surfaces for compound binding experiments. For compound interaction analyses, 0.01 M Hepes, pH7.4, 0.15 M NaCl, 0.05% Surfactant P20 and 5% DMSO was used. Compound samples were prepared by serial dilution in the range 0.78 uM-50 uM and flowed over control and derivatized surfaces for two minutes at a flow-rate of 80 μL/min. Zero concentration blank buffer cycles were included as negative control samples. […]

[2] = mouse ear inflammatory test; cited from earlier work
[3] = tested on: DNA polymerases; settings: cited from earlier work
[4] = tested on: human normal (non-cancerous) breast epithelial cells; test: Toxicity in human primary normal (non-cancerous) cells; assay type: cell-based; settings: 5 and 10 microM (Iressa 5 microM), 24-96 hours, Alamar Blue and cell death assays
Procedure: The cultures were subsequently stained with crystal-violet blue to evaluate the number of live cells. […] The number of dead cells was determined by Alamar Blue staining as well as Cyto-Flow-cell death assays from Promega (Madison, Wis.).

[5] = tested on: EJ cancer cells; test: Cytotoxicity assay (sulforhodamine B) in EJ cancer cells; assay type: cell-based, human; settings: high and low confluent density, FIG. 10 legend
Procedure: DMSO treatment was used as a control. Cells were stained with 0.4% sulforhodamine B three days after treatment. The results are shown in FIG. 10 A (cells started with higher confluent density) and FIG. 10 B (treatment experiments performed with lower confluent density). FIG. 10 C (low confluent) and FIG. 10 D show the result of a time curve experiment wherein aliquots of cells were stained at 24, 48, 72 and 96 hours.

[6] = tested on: EJ cells or A549 cells; test: Lung or bladder tumor xenograft in nude mice; assay type: in vivo; settings: intraperitoneally 1 mg/kg every 48 hours for 42 days, vs control DMSO-administered mice
Procedure: Lung or bladder tumor xenograft-bearing mice were treated with myrsinoic acid A to evaluate its in vivo anti-tumor effect. A total of 2×10^6 EJ cells or A549 cells were implanted subcutaneously on opposite site flanks in each nude/nude mice (Charles River, Mass.). There were six mice in each group. When tumor masses grew to ˜2-5 mm in diameter, myrsinoic acid A (NP2008) was administered intraperitoneally (total 1 mg/kg) every 48 hours for 42 days.

[7] = tested on: mammary tumor; test: Spontaneous tumor model (MMTV-PyVT transgenic mice); assay type: in vivo; settings: 5 mg/kg daily i.p. for 28 days, vs DMSO
Description: Mice with a spontaneous tumor model (MMTV-PvVT (FVB/N-Tg) transgenic mice; NCI repository) develop multifocal mammary tumor (from hyperplasia to metastatic) with a high incidence of metastasis. This mouse model has been widely used for the correlation studies of human cancer (Guy et al., Moll. Cell. Biol. 12: 954-961, 1992). In addition, this mouse model has been used to evaluate the effectiveness of potential drug therapies. Generally, due to aggressiveness of tumor growth and spread in this mouse-model, only a combination of chemo-drugs is effective in tumor growth inhibition in this mouse model.
MMTV-PyVT mice were maintained until mammary tumor size reached to 6 mm, and then treated with myrsinoic acid A (NP2008) (5 mg/kg) or vehicle (DMSO) daily by i.p. for 28 days.

[8] = tested on: phospho-EGFR, phospho-Her3/ErbB3 and phospho-AKT; test: EGFR signaling in Iressa resistant SKBR3 cells by Western blot; assay type: cell-based, human; settings: longer exposure (up to 96 hours)
Procedure: After treatment, total cell lysates were isolated and analyzed by Western blot analysis. The cells were evaluated for the presence of phospho-EGFR, phospho-Her3/ErbB3 and phospho-AKT.

[9] = tested on: human cancer cells including breast cancer cells, bladder cancer cells, colon cancer cells, and lung cancer cells; test: Induction of cell death/apoptosis in a panel of human cancer cells; assay type: cell-based
Description: We evaluated the ability of myrsinoic acid A (NP2008) to suppress cell growth and induce apoptosis in a panel of human cancer cells.

[10] = tested on: EJ cells; test: Clonogenic assay of EJ cells; assay type: cell-based, human; settings: for colony growth: EJ cells, 5 μM, grown for two weeks
Procedure: Aliquots of one hundred EJ cells were plated out in petridish (60 mm size) and allowed to establish themselves. […] After exposure, the cells were grown for two weeks without changing the medium, and the number of cell colonies were counted.

[11] = tested on: human cancer cells including breast cancer cells, bladder cancer cells, colon cancer cells, and lung cancer cells; test: Tumor cell growth inhibition / viable cells by crystal-violet staining; assay type: cell-based
Description: The ability to suppress the growth of cancer cells was again seen at micromolar potencies (2.5-10 microM) and was concentration dependent. […] Viable cells are shown with crystal-violet cell staining.

[12] = tested on: methioninase; settings: cited from earlier work
[13] = concentration dependent, wildtype or mutated p53 cell lines

T1 sequence (Q99075 63-148 limits assumed): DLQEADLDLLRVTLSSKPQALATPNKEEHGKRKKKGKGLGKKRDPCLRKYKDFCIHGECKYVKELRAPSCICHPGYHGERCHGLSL

CC(C)=CCC/C(C)=C/Cc1cc(C(=O)O)cc(CC=C(C)C)c1O [myrsinoic acid A, 3-geranyl-4-hydroxy-5-(3′-methyl-2′butenyl)-benzoic acid]
binding to HB-EGF [1]: binding
anti-inflammatory activity [2]: act as anti-inflammatory compounds
DNA polymerase inhibition [3]: inhibitor of some DNA polymerases
cytotoxicity in normal cells [4]: less cytotoxicity in normal cells than Iressa; also recorded: non-toxic
suppression of cancer cell proliferation compared with Iressa [5]: more potent suppressor of cancer cell proliferation than Iressa
tumor growth [6]: significant tumor-growth suppression
tumor mass [7]: significant reduction in tumor mass
phospho-EGFR, phospho-HER3 and phospho-AKT on longer exposure [8]: long term suppression
cell death ([9]; EJ human bladder cancer cells and HCT116 human colon cancer cells (FIG. 5)): induces cell death
potencies at which apoptosis is induced [9, 13]: 2.5 to 10 µM
colony growth [10]: did not show any colony growth
suppression of growth of EJ cells compared with radiation or Iressa ([10]; clonogenic assay, FIG. 9 legend): more effective
number of viable cells ([11]; EJ, HCT116, MDA-MD486 and A549 cells, crystal-violet staining (FIG. 6)): decrease in the number viable cells
potencies at which growth of cancer cells is suppressed [11, 13]: 2.5 to 10 µM

COc1cc2ncnc(Nc3ccc(F)c(Cl)c3)c2cc1OCCCN1CCOCC1 [Iressa, reference compound]
colony growth [10]: did not show any colony growth

CC(C)=CCC/C(C)=C/Cc1cc(C(=O)O)cc(C/C=C(\C)CCC=C(C)C)c1O [myrsinoic acid E]
anti-inflammatory activity [2]: act as anti-inflammatory compounds

CC(C)=CCCC(C)(O)C1Cc2cc(C(=O)O)cc(CC=C(C)C)c2O1 (centres unmarked) [myrsinoic acid B]
anti-inflammatory activity [2]: act as anti-inflammatory compounds
methioninase inhibition [12]: methioninase inhibitor

CC(C)=CCC[C@]1(C)Oc2c(CC=C(C)C)cc(C(=O)O)cc2C[C@@H]1O [myrsinoic acid C]
anti-inflammatory activity [2]: act as anti-inflammatory compounds

CC(C)=CC/C=C(\C)C1Cc2cc(C(=O)O)cc(CC=C(C)C)c2O1 (centres unmarked) [myrsinoic acid F]
anti-inflammatory activity [2]: act as anti-inflammatory compounds; also recorded: most potent anti-inflammatory compound
